The target of the assay is 5α-reductase. As to the kind of experiment: 5α-reductase inhibitory activity in vitro. As to conditions: rat prostate enzyme, [4-C14]testosterone + NADPH, 60 mins at 37° C. Format: biochemical. As for the experimental part:
5α-reductase inhibitory activity in vitro
Inhibitory activity on 5α-reductase in vitro was measured by the following test system.
The test was carried out by being referred to the method of J. Shimazaki et al [See Endocrinol, Japan., 18, 179 (1971)].
Male rats' prostate (4g) was homogenized with its 3-fold volume of 0.1 M HEPES buffer (pH 7.4) including 0.25 M cane sugar, and was centrifuged at 3000 r.p.m. for 10 mins.
The precipitate was suspended into the buffer solution described above (10 ml), and the suspension was centrifuged at 3000 r.p.m. for 5 mins. The resulting precipitated was suspended in the buffer solution (3 ml) described above and was used as a sauce of enzyme.
A reaction mixture (total volume 0.1 ml) of [4-c^14 ]testosterone (1.5n mol, 1.5×10^5 cpm), NADPH (0.5 μmol), enzyme solution (0.03 ml) described above and several kinds of concentration of the compounds in the present invention was incubated for 60 mins at 37° C. Enzyme reaction was quenched by addition of a mixture (0.4 ml) of chloroform and methanol (1:2), and the mixture was centrifuged at 2000 r.p.m. for 3 mins. The supernatant (50 μl) was spotted on silica gel thin layer plate. The spot on the plate was developed with a mixture of chloroform, methanol and acetic acid (99.2:0.6:0.2). Radioactivity of dihydrotestosterone generated on the plate was measured by TLC scanner of radio-autography and inhibitory ratio was calculated.

By IC50 is commonly meant the point on the concentration scale where inhibition reaches its midpoint. With `O=C(O)CCCOc1ccccc1NC(=O)c1ccc(OCc2ccccc2)cc1` [1(a), 4-[2-(4-benzyloxybenzoylamino)phenoxy]butanoic acid], the IC50 came out at 200 nM.

For the molecule `Cc1ccc(COc2ccc(C(=O)Nc3ccccc3OCCCC(=O)O)cc2)cc1` [1(b), 4-[2-[4-(4-methylphenylmethoxy)benzoylamino]phenoxy]butanoic acid], the IC50 turned out to be 330 nM.

In the case of `CCc1ccc(COc2ccc(C(=O)Nc3ccccc3OCCCC(=O)O)cc2)cc1` [1(c), 4-[2-[4-(4-ethylphenylmethoxy)benzoylamino]phenoxy]butanoic acid], the concentration for half-maximal inhibition (IC50) is 320 nM.

As for `CCCc1ccc(COc2ccc(C(=O)Nc3ccccc3OCCCC(=O)O)cc2)cc1` [1(d), 4-[2-[4-(4-propylphenylmethoxy)benzoylamino]phenoxy]butanoic acid], the 50% inhibitory concentration (IC50) stood at 130 nM.

With `CC(C)c1ccc(COc2ccc(C(=O)Nc3ccccc3OCCCC(=O)O)cc2)cc1` [1(e), 4-[2-[4-(4-isopropylphenylmethoxy)benzoylamino]phenoxy]butanoic acid], the concentration for half-maximal inhibition (IC50) worked out at 220 nM.

For `O=C(O)CCCOc1ccccc1NC(=O)c1ccc(OCCCc2ccccc2)cc1` [1(f), 4-[2-[4-(3-phenylpropoxy)benzoylamino]phenoxy]butanoic acid], the IC50 turned out to be 200 nM.

Consider `O=C(O)CCCOc1ccccc1NC(=O)c1ccc(OCCCCc2ccccc2)cc1` [1(g), 4-[2-[4-(4-phenylbutoxy)benzoylamino]phenoxy]butanoic acid], for which the 50% inhibitory concentration (IC50) was 440 nM.

On to `Cc1cc(OCc2ccc(CC(C)C)cc2)ccc1C(=O)Nc1ccccc1OCCCC(=O)O` [1(h), 4-[2-[4-(4-isobutyphenylmethoxy)-2-methylbenzoylamino]phenoxy]butanoic acid], for which the IC50 came out at 570 nM.

Turning to `Cc1cc(C(=O)Nc2ccccc2OCCCC(=O)O)ccc1OCc1ccc(CC(C)C)cc1` [1(i), 4-[2-[4-(4-isobutyphenylmethoxy)-3-methylbenzoylamino]phenoxy]butanoic acid], the IC50 worked out at 430 nM.

With `CCCc1ccc(CN(Cc2ccc(CCC)cc2)c2ccc(C(=O)Nc3ccccc3OCCCC(=O)O)cc2)cc1` [2(a), 4-[2-[4-[N, N-bis(4-propylbenzyl)amino]benzoylamino]phenoxy] butanoic acid], the IC50 turned out to be 23 nM.

Regarding `Cc1cc(N(Cc2ccc(CC(C)C)cc2)Cc2ccc(CC(C)C)cc2)ccc1C(=O)Nc1ccccc1OCCCC(=O)O` [2(b), 4-[2-[4-[N, N-bis(4-isobutylbenzyl)amino]-2-methylbenzoylamino]phenoxy]butanoic], the IC50 worked out at 25 nM.

For the molecule `CCCCCN(CCCCC)c1ccc(C(=O)Nc2ccccc2OCCCC(=O)O)c(C)c1` [2(c), 4-[2-[4-[N, N-dipenthylamino)-2-methylbenzoylamino]phenoxy] butanoic acid], the IC50 stood at 300 nM.

For `CCCCCN(Cc1ccc(CCC)cc1)c1ccc(C(=O)Nc2ccccc2OCCCC(=O)O)c(C)c1` [2(d)], the IC50 came to 25 nM.

On to `CCCc1ccc(CN(C)c2ccc(C(=O)Nc3ccccc3OCCCC(=O)O)c(C)c2)cc1` [2(e), 4-[2-[4-[N-methyl-N-(4-propylbenzyl)amino]-2-methylbenzoylamino]phenoxy]butanoic], for which the IC50 stood at 44 nM.

Take `Cc1cc(N(CCCCc2ccccc2)CCCCc2ccccc2)ccc1C(=O)Nc1ccccc1OCCCC(=O)O` [2(f), 4-[2-[4-[N, N-bis(4-phenylbutyl)amino]-2-methylbenzoylamino]phenoxy]butanoic]: the IC50 is 170 nM.

With `Cc1cc(N(Cc2ccc(C(C)C)cc2)Cc2ccc(C(C)C)cc2)ccc1C(=O)Nc1ccccc1OCCCC(=O)O` [2(g), 4-[2-[4-[N, N-bis(4-isopropylbenzyl)amino]-2-methylbenzoylamino]phenoxy] butanoic], the concentration for half-maximal inhibition (IC50) amounted to 27 nM.

In the case of `Cc1cc(N(Cc2ccc(F)cc2F)Cc2ccc(F)cc2F)ccc1C(=O)Nc1ccccc1OCCCC(=O)O` [2(h)], the IC50 came to 140 nM.

Consider `CCCc1ccc(CN(C(=O)c2ccc(CCC)cc2)c2ccc(C(=O)Nc3ccccc3OCCCC(=O)O)c(C)c2)cc1` [2(i)], for which the IC50 was 150 nM.

Turning to `Cc1cc(N(Cc2ccccc2C(F)(F)F)Cc2ccccc2C(F)(F)F)ccc1C(=O)Nc1ccccc1OCCCC(=O)O` [2(j)], the IC50 was 26 nM.

As to `Cc1cc(N(Cc2ccc(C(F)(F)F)cc2)Cc2ccc(C(F)(F)F)cc2)ccc1C(=O)Nc1ccccc1OCCCC(=O)O` [2(k), 4-[2-[4-[N,N-bis-(4-trifluoromethylbenzyl)amino]-2-methylbenzoylamino]phenoxy] butanoic], the IC50 was 580 nM.

Consider `CC(C)Cc1ccc(CNc2ccc(C(=O)Nc3ccccc3OCCCC(=O)O)cc2)cc1` [2(l), 4-[2-[4-(4-isobutylbenzylamino)benzoylamino]phenoxy] butanoic acid], for which the IC50 came out at 150 nM.

Regarding `Cc1cc(NCc2ccc(CC(C)C)cc2)ccc1C(=O)Nc1ccccc1OCCCC(=O)O` [2(m), 4-[2-[4-(4-isobutylbenzylamino)-2-methylbenzoylamino]phenoxy] butanoic acid], the IC50 was found to be 120 nM.

For `CCCc1ccc(CNc2ccc(C(=O)Nc3ccccc3OCCCC(=O)O)c(C)c2)cc1` [2(n), 4-[2-[4-(4-propylbenzylamino)-2-methylbenzoylamino]phenoxy] butanoic acid], the IC50 amounted to 40 nM.

On to `Cc1cc(NC(C)c2ccc(CC(C)C)cc2)ccc1C(=O)Nc1ccccc1OCCCC(=O)O` (centres unmarked) [2(o), 4-[2-[4-[1-(4-isobutylphenyl)ethylamino]-2-methylbenzoylamino]pehnoxy]butanoic], for which the IC50 is 35 nM.

On to `Cc1cc(NCc2ccc(C(C)C)cc2)ccc1C(=O)Nc1ccccc1OCCCC(=O)O` [2(p), 4-[2-[4-(4-isopropylbenzylamino)-2-methylbenzoylamino]phenoxy] butanoic acid], for which the IC50 amounted to 80 nM.

In the case of `Cc1cc(NCc2ccccc2C(F)(F)F)ccc1C(=O)Nc1ccccc1OCCCC(=O)O` [2(q), 4-[2-[4-(2-trifluoromethylbenzylamino)-2-methylbenzoylamino]phenoxy] butanoic], the IC50 came out at 220 nM.

As to `CCCc1ccc(C(Nc2ccc(C(=O)Nc3ccccc3OCCCC(=O)O)c(C)c2)c2ccc(CCC)cc2)cc1` [2(r), 4-[2-[4-[bis(4-propylphenyl)methylamino]-2-methylbenzoylamino]phenoxy] butanoic], the half-maximal inhibitory concentration (IC50) is 2.5 nM.

On to `CCCc1ccc(C(Nc2ccc(C(=O)Nc3ccccc3OCCCC(=O)O)cc2)c2ccc(CCC)cc2)cc1` [2(s), 4-[2-[4-[bis(4-propylphenyl)methylamino]benzoylamino]phenoxy] butanoic acid], for which the IC50 was determined as 11 nM.

For `CCCc1ccc(CNc2ccc(C(=O)Nc3ccccc3SCCCC(=O)O)c(C)c2)cc1` [3(a), 4-[2-[4-(4-propylbenzylamino)-2-methylbenzoylamino]phenylthio] butanoic acid], the IC50 came out at 56 nM.

On to `CCCc1ccc(CN(Cc2ccc(CCC)cc2)c2ccc(C(=O)Nc3ccccc3SCCCC(=O)O)c(C)c2)cc1` [3(b), 4-[2-[4-[N,N-bis(4-propylbenzyl)amino]-2-methylbenzoylamino]phenylthio]butanoic], for which the IC50 came out at 25 nM.

For `CCCc1ccc(C(Oc2ccc(C(=O)Nc3ccccc3OCCCC(=O)O)cc2)c2ccc(CCC)cc2)cc1` [4(a), 4-[2-[4-[bis(4-propylphenyl)methoxy]benzoylamino]phenoxy] butanoic acid], the IC50 was 3 nM.

In the case of `CCCc1ccc(C(Oc2ccc(C(=O)Nc3ccccc3OCCCC(=O)O)c(C)c2)c2ccc(CCC)cc2)cc1` [4(b), 4-[2-[4-[bis(4-propylphenyl)methoxy]-2-methylbenzoylamino]phenoxy]butanoic], the IC50 came to 6.5 nM.

Consider `O=C(O)CCCOc1ccccc1NC(=O)c1ccc(CNc2cccc3c2CCCC3)cc1` [6(b), 4-[2-[4-(5,6,7,8-tetrahydronaphthalene-1-yl)aminomethylbenzoylamino]phenoxy] butanoic], for which the IC50 was determined as 230 nM.

As for `CN(Cc1ccc(C(=O)Nc2ccccc2OCCCC(=O)O)cc1)c1cccc2c1CCCC2` [6(c), 4-[2-[4-[N-methyl-N-(5,6,7,8,- tetrahydronaphthalene-1-yl)aminomethyl]benzoylamino]phenoxy] butanoic acid], the IC50 amounted to 140 nM.

For the molecule `O=C(O)CCCOc1ccccc1NC(=O)c1ccc(OCCCCc2ccccc2)cc1` [Compared compound 2, reference compound], the IC50 was greater than 20000 nM.

As for `CC(C)Cc1ccc(COc2ccc(C(=O)Nc3ccccc3OCCCC(=O)O)cc2)cc1` [Example 1, 4-[2-[4-(4-isobutylphenylmethoxy)benzoylamino]phenoxy]butanoicacid], the IC50 came out at 80 nM.

Consider `CCCc1ccc(CN(Cc2ccc(CCC)cc2)c2ccc(C(=O)Nc3ccccc3OCCCC(=O)O)c(C)c2)cc1` [Example 2, 4-[2-[2-methyl-4-[N,N-bis(4-propylbenzyl)amino]benzoylamino]phenoxy]butanoic acid], for which the IC50 was found to be 11 nM.

As for `CCCc1ccc(CN(Cc2ccc(CCC)cc2)c2ccc(C(=O)Nc3ccccc3[S+]([O-])CCCC(=O)O)c(C)c2)cc1` (centres unmarked) [Example 5, 4-[2-[4-[N,N-bis(4-propylbenzyl)amino]-2-methylbenzoylamino]phenylsulfinyl]butanoic acid], the 50% inhibitory concentration (IC50) amounted to 65 nM.
